Data reported in patent US20230174464A1, “MYRISTOYL DERIVATIVES OF 9-AMINO-DOXYCYCLINE FOR TARGETING CANCER STEM CELLS AND PREVENTING METASTASIS” (LUNELLA BIOTECH, INC., priority 2020, published 2023).
Read-outs that look alike come from different tables or passages of the source.

How the values were obtained:
[1] = tested on: Staphylococcus aureus (ATCC 29213); test: Bacterial growth assay (broth microdilution, resazurin); type: cell-based; conditions: S. aureus, Gram-positive, 100-0.78 μM
Method: (§1) Bacterial Growth Assays: Briefly, antibiotic activity was assessed using standard assay systems. The antibiotic activity of Doxycycline analogues was determined experimentally, using Resazurin (R7017; Sigma-Aldrich, Inc.) as a probe, in a 96-well plate format, using standard strains of E. coli and S. aureus. The minimum inhibitory concentration (MIC) for the studied compounds was determined using the broth microdilution method, the reference susceptibility test for rapidly growing aerobic or facultative microorganism. The assays were performed according to the Clinical and Laboratory Standards Institute (CLSI) guidelines. The test compounds and positive control (doxycycline, Sigma Aldrich #D1822) stock solutions were prepared at 25 mM in DMSO and serially diluted (2-fold dilution from 200-1.56 tiM) in cation adjusted Mueller Hinton Broth (MHB, Sigma Aldrich #90922) in 96 well transparent plates (VWR #734-2781) into a final volume of 50 μL/well. Staphylococcus aureus (ATCC 29213) and E. coli (ATCC 25922) cultures were grown overnight at 37° C. in Mueller Hinton Agar (MHA, Sigma Aldrich #70191). A single colony of each strain was then grown overnight at 37° C. in MHB until OD600˜0.6-0.8 and further diluted into MHB to a concentration of […] colony forming units (CFU)/mL, which was equivalent to an OD600˜0.01. Then, 50 μL of the diluted inoculums was transferred to the wells of the previously prepared 96-well plates containing the test compounds, negative control (1% DMSO in MHB) and positive control (doxycycline). Final wells volume was 100 μL, final concentrations for the testing compounds were between 100-0.78 μM and final microorganism concentration was 5×10^5 CFU/mL. Subsequently, 10 uL of one negative control well was plated in a petri dish containing MHA to check CFU and the purity of the cultures. The plates were incubated at 37° C. for 24 h after which 20 tit of resazurin solution (0.2 mg/mL) was added to the wells followed by 1 h30 min incubation at 37° C. The OD570 and OD600 were measured in a microplate reader (BMG FLUOstar Omega). […] MIC values were determined by three independent experiments.

E. coli (ATCC 25922) = test: as above; type: cell-based, Escherichia coli; conditions: Gram-negative, 100-0.78 μM
Method: as §1

MCF7 CSCs = test: 3D-mammosphere formation assay; type: cell-based, human; conditions: for IC50: 5 days, non-adherent conditions, read-out: IC50 for inhibiting 3D anchorage-independent propagation (mammosphere formation)
Method: For the 3D-Mammosphere Assay, a single cell suspension of MCF7 cells was prepared using enzymatic (lx Trypsin-EDTA, Sigma Aldrich) and manual disaggregation (25-gauge needle). Cells were then plated at a density of 500 cells/cm^2 in mammosphere medium (DMEM-F12/B27/EGF (20-ng/ml)/PenStrep) in non-adherent conditions, in culture dishes coated with (2-hydroxyethylmethacrylate) (poly-HEMA, Sigma). Cells were grown for 5 days and maintained in a humidified incubator at 37° C. at an atmospheric pressure in 5% (v/v) carbon dioxide/air. After 5 days in culture, spheres>50 μm were counted using an eye-piece graticule, and the percentage of cells plated which formed spheres was calculated and is referred to as percent mammosphere formation, normalized to vehicle-alone treated controls. Mammosphere assays were performed in triplicate and repeated three times independently.

MCF7 cells [2] = test: Cell viability (SRB) assay, MCF7 2D-monolayers; type: cell-based, human; conditions: 3 days, 5 to 20 μM
Method: (§2) Cell Viability Assay: The Sulphorhodamine (SRB) assay is based on the measurement of cellular protein content. After treatment for 72 h in 96-well plates, (8,000 cells/well), cells were fixed with 10% trichloroacetic acid (TCA) for 1 hour in the cold room, and were dried overnight at room temperature. Then, cells were incubated with SRB for 15 min, washed twice with 1% acetic acid, and air dried for at least 1 hour. Finally, the protein-bound dye was dissolved in a 10 mM Tris, pH 8.8, solution and read using the plate reader at 540-nm.

chick embryo = test: CAM assay, embryo tolerability / toxicity; type: in vivo; conditions: for Dead / Alive: number of embryos
Method: a) Preparation of Chicken Embryos. […] At that moment (E9), the chorioallantoic membrane (CAM) was dropped down by drilling a small hole through the eggshell into the air sac, and a 1 cm^2 window was cut in the eggshell above the CAM.
e) Embryo Tolerability Assay. Before each administration, the treatment tolerability was evaluated by scoring the number of dead embryos.

[3] = tested on: CSC burden in early breast cancer patients; conditions: oral 200 mg/day for 14 days; cited from earlier work
[4] = tested on: normal human fibroblasts (hTERT-BJ1); test: Cell viability (SRB) assay, normal fibroblasts 2D-monolayers; type: cell-based; conditions: hTERT-BJ1 2D-monolayers, 3 days, 5 to 20 μM
Method: as §2

MCF7 cells [5] = test: Cell proliferation, xCELLigence RTCA; type: cell-based, human; conditions: MCF7 2D-monolayers, relative to control (no treatment)
Method: Cell Proliferation: Briefly, MCF7 cells or hTERT-BJ1 fibroblasts were seeded in each well (10,000 cells/well) and employed to assess the efficacy of Doxycycline and Doxy-Myr, using RTCA (real-time cell analysis), via the measurement of cell-induced electrical impedance plate (Acea Biosciences Inc.). This approach allows the quantification of the onset and kinetics of the cellular response. Experiments were repeated several times independently, using quadruplicate samples for each condition.

MCF7 cells [6] = test: Cell cycle analysis (FACS); type: cell-based, human; conditions: MCF7 2D-monolayers, 72 hours, 10 μM
Method: Cell Cycle Analysis: Performed on MCF7 cells treated with Doxycycline, Doxy-Myr or vehicle-alone. Briefly, after trypsinization, the re-suspended cells were incubated with 10 ng/ml of Hoechst solution (Thermo Fisher Scientific) for 40 min at 37° C. under dark conditions. Following a 40 min period, the cells were washed and re-suspended in PBS Ca/Mg for acquisition on the Attune NxT flow cytometer (Thermo Scientific). 10,000 events per condition were analyzed. Gated cells were manually-categorized into cell-cycle stages.

IC50 (MCF7 CSCs; Homo sapiens, MCF7, 120 h) [µM] | Compound | antibiotic activity (growth inhibition) [1] | antibiotic activity (growth inhibition) (E. coli (ATCC 25922)) | effect on cell viability (MCF7 cells [2]) | % Dead (chick embryo; 0.125 mM) [%] | Dead (chick embryo; 0.125 mM) | % Dead (chick embryo; 0.250 mM) [%] | Dead (chick embryo; 0.250 mM) | effect on cell viability [4] | effect on proliferation (MCF7 cells [5]) | further results
5.8 | CCCCCCCCCCCC(=O)Nc1ccc2c(c1O)C(=O)C1=C(O)[C@]3(O)C(=O)C(C(N)=O)=C(O)[C@@H](N(C)C)C3[C@@H](O)C1[C@H]2C (stereo partly drawn) [Doxy-Laur, (4S,5S,6R,12aS)-4-(dimethylamino)-9-(dodecanoylamino)-3,5,10,12,12a-pentahydroxy-6-methyl-1,11-dioxo-4a,5,5a,6-tetrahydro-4H-tetracene-2-carboxamide] | did not show any antibiotic activity | did not show any antibiotic activity | – | – | – | – | – | – | – | –
– | C[C@H]1c2cccc(O)c2C(=O)C2=C(O)[C@]3(O)C(=O)C(C(N)=O)=C(O)[C@@H](N(C)C)C3[C@@H](O)C21 (stereo partly drawn) [Doxycycline, (4S,5 S,6R,12aS)-4-(dimethylamino)-3,5,10,12,12a-pentahydroxy-6-methyl-1,11-dioxo-4a,5,5 a,6-tetrahydro-4H-tetracene-2-carboxamide] | potently and effectively inhibits the growth | potently and effectively inhibits the growth | no appreciable effects on cell viability | 15.38 | 2 | 23.08 | 3 | no appreciable effects on cell viability | did not inhibit the proliferation | embryo toxicity (chick embryo; in vivo): little-to-no embryo toxicity; positive response rate [3]: ~90%
– | C[C@H]1c2ccc(NC(=O)CCCCC[P+](c3ccccc3)(c3ccccc3)c3ccccc3)c(O)c2C(=O)C2=C(O)[C@]3(O)C(=O)C(C(N)=O)=C(O)[C@@H](N(C)C)C3[C@@H](O)C21.C[C@H]1c2ccc(NC(=O)CCCCC[P+](c3ccccc3)(c3ccccc3)c3ccccc3)c(O)c2C(=O)C2=C(O)[C@]3(O)C(=O)C(C(N)=O)=C(O)[C@@H](N(C)C)C3[C@@H](O)C21.O=C([O-])C(=O)[O-] (stereo partly shown) [Doxy-TPP] | – | – | – | – | – | – | – | – | – | inhibitory potency compared with Doxycycline (MCF7 CSCs): not more potent that Doxycycline
– | CCCCCCCCCCCCCC(=O)Nc1ccc2c(c1O)C(=O)C1=C(O)[C@]3(O)C(=O)C(C(N)=O)=C(O)[C@@H](N(C)C)C3[C@@H](O)C1[C@H]2C (stereo partly drawn) [Doxy-Myr, (4S,5S,6R,12aS)-4-(dimethylamino)-3,5,10,12,12a-pentahydroxy-6-methyl-1,11-dioxo-9-(tetradecanoylamino)-4a,5,5a,6-tetrahydro-4H-tetracene-2-carboxamide] | did not show any antibiotic activity | did not show any antibiotic activity | no appreciable effects on cell viability | 21.43 | 3 | 7.69 | 1 | no appreciable effects on cell viability | did not inhibit the proliferation | effect on cell cycle progression (MCF7 cells [6]): did not have any significant effects on reducing cell cycle progression; % Alive (chick embryo; 0.125 mM): 78.57%; Alive (chick embryo; 0.125 mM): 11; % Alive (chick embryo; 0.250 mM): 92.31%; Alive (chick embryo; 0.250 mM): 12; embryo toxicity (chick embryo; CAM assay): little-to-no embryo toxicity; IC50 (MCF7 CSCs): 3.46 µM
10.4 | CCCCCCCCCCCCCCCC(=O)Nc1ccc2c(c1O)C(=O)C1=C(O)[C@]3(O)C(=O)C(C(N)=O)=C(O)[C@@H](N(C)C)C3[C@@H](O)C1[C@H]2C (stereo partly drawn) [Doxy-Pal, (4S,5S,6R,12 aS)-4-(dimethylamino)-9-(hexadecanoylamino)-3,5,10,12,12a-pentahydroxy-6-methyl-1,11-dioxo-4a,5,5 a,6-tetrahydro-4H-tetracene-2-carboxamide] | did not show any antibiotic activity | did not show any antibiotic activity | – | – | – | – | – | – | – | –
